Test results: US20020010182A1, “Piperazine derivatives as tachykinin antagonists” (FUJISAWA PHARMACEUTICAL CO., LTD., priority 1995, published 2002)
Counter-ions that a name gives are not always drawn.

Biological target: T1, h-NK1 receptors (Homo sapiens, UniProt P25103)
T1 construct: expressed in transfected cells; host or cells: CHO cells (permanent expression), crude cell membranes
Test: Evaluation of NK1 antagonist transport efficiency to the central nervous system using a h-NK1 receptor binding assay
Conditions: 5 min, brain extract of male SD rats 5 min after i.v. injection of test compound, CHO cell membranes expressing h-NK1, read-out: inhibition rate of 125I-BH-Substance P binding to h-NK1 receptors
Protocol: A. Evaluation of NK1 Antagonist Transport Efficiency to the Cental Nervous System Using a h-NK1 Receptor Binding Assay
(1) Administration of Test Compound and Extraction of the Compound From Brain
Male SD rats were given an i.v. injection of a solution containing a test compound (1 mg/kg). 5 Min later the animals were anesthetized by ether, bled and perfused through the aorta ascendens with 20 ml of saline. The brain was rapidly removed, weighed and homogenized in 4 vol. ice-cold distilled water by using Polytoron (KINEMATICA). To extract the test compound, 500 μl of the homogenate, 100 μl of methanol, 500 μl of 0.1 N NaOH and 4 ml of ethyl acetate were mixed by shaking for 10 min at room temperature. The organic phase (2.5 ml) was recovered by centrifugation at 3,000 rpm for 10 min, dried and dissolved in dimethyl sulfoxide.
(2) h-NK1 Receptor Binding Assay
(a) Crude CHO Cell Membrane Preparation
CHO cells permanently expressing h-NK1 receptors were harvested and homogenized with a Dounce homogenizer at 4° C. in a buffer (0.25 M sucrose, 25 mM Tris-HCl (pH 7.4), 10 mM MgCl2, 1 mM EDTA, 5 μg/ml p-APMSF). The homogenate was centrifuged (500×g, 10 min), and the pellet was resuspended in the same buffer, homogenized, and centrifuged. The two supernatants were combined and centrifuged (100,000×g, 1 hour). The crude cell membranes thus isolated were resuspended in a buffer (25 MM Tris-HCl (pH 7.4), 10 mM MgCl2, 1 mM EDTA, 5 μg/ml p-APMSF) and stored at −80° C. until use.
(b) ^125I-BH-Substance P Binding to the Prepared Membrane
Cell membranes (6 μg/ml) were incubated with ^125I-BH-Substance P (0.1 nM) with or without the extracted compounds in 0.25 ml of a medium (50 mM Tris-HCl (pH 7.4), 5 mM MnCl2, 20 μg/ml chymrostatin, 40 μg/ml bacitracin, 4 μg/ml leupeptin, 5 μg/ml p-APMSF, 200 μg/ml BSA) at 22° C. for 90 min. At the end of the incubation period, the contents were quickly filtered through a Blue Mat 11740 filter (pretreated with 0.1% polyethylenimine for 3 hours prior to use) by using SKATRON Cell Harvester. The filter was then washed with a washing buffer (50 mM Tris-HCl (pH 7.4), 5 mM MnCl2) . The radioactivity was counted by using an auto gamma counter (Packard RIASTAR 5420A). All data presented are specific binding defined as that displaceable by 3 μM unlabeled Substance P.

T1 sequence (P25103 whole entry): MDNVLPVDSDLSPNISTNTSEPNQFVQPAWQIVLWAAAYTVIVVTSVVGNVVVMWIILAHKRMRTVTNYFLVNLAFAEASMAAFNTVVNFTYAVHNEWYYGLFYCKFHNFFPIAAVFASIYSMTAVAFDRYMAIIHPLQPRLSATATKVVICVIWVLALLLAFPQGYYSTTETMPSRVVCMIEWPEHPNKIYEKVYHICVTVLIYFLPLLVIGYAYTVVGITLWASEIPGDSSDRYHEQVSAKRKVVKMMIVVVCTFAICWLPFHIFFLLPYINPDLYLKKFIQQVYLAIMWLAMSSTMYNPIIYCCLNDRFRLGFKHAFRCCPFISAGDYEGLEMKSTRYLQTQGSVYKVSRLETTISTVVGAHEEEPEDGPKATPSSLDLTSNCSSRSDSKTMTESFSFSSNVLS

SMILES	inhibition at 1 mg/kg
Cc1ccc(C[C@@H]2CN(CC#CCN3CCOCC3)CCN2C(=O)c2cc(C(F)(F)F)cc(C(F)(F)F)c2)cc1C.Cl.Cl [37-(2), (2R)-4-(4-Morpholino-2-butynyl)-1-[3,5-bis (trifluoromethyl)benzoyl]-2-(3,4-dimethylbenzyl) piperazine dihydrochloride]	> 80%
Cc1ccc(C[C@@H]2CN(CCCN3CCOCC3)CCN2C(=O)c2cc(C(F)(F)F)cc(C(F)(F)F)c2)cc1C.Cl.Cl [53-(1), (2R)-1-[3,5-Bis(trifluoromethyl)benzoyl]-2-(3,4-dimethylbenzyl)-4-(3-morpholinopropyl) piperazine dihydrochloride]	> 80%
O=C(c1cc(C(F)(F)F)cc(C(F)(F)F)c1)N1CCN(CCCN2CCC(c3ccccc3)CC2)C[C@H]1Cc1c[nH]c2ccccc12 [Example 46, (2R)-1-[3,5-bis(trifluoromethyl)benzoyl]-2-(1H-indol-3-ylmethyl)-4-[3-(4-phenylpiperidino)propyl]piperazine]	> 80%
O=C(c1cc(C(F)(F)F)cc(C(F)(F)F)c1)N1CCN(CCO)C[C@H]1Cc1ccc(Cl)c(Cl)c1 [Example 47, (2R)-2-(3,4-dichlorobenzyl)-1-[3,5-bis(trifluoromethyl)benzoyl]-4-(2-hydroxyethyl) piperazine hydrochloride]	> 80%
O=C(c1cc(C(F)(F)F)cc(C(F)(F)F)c1)N1CCN(CCCCCN2CCOCC2)C[C@H]1Cc1c[nH]c2ccccc12 [Example 55, (2R)-1-[3,5-Bis(trifluoromethyl)benzoyl]-2-(1H-indol-3-ylmethyl)-4-(5-morpholinopentyl) piperazine dihydrochloride]	> 80%
Cc1ccc(C[C@@H]2CN(CCNCc3cccnc3)CCN2C(=O)c2cc(C(F)(F)F)cc(C(F)(F)F)c2)cc1C [Example 67-(5), (2R)-1-[3,5-Bis(trifluoromethyl)benzoyl]-2-(3,4-dimethylbenzyl)-4-[2-(3-pyridylmethylamino)ethyl]piperazine trihydrochloride]	> 80%
Cc1ccc(C[C@@H]2CN(CCN3CCCOCC3)CCN2C(=O)c2cc(C(F)(F)F)cc(C(F)(F)F)c2)cc1C [Example 67-(6), (2R)-1-[3,5-Bis(trifluoromethyl)benzoyl]-2-(3,4-dimethylbenzyl)-4-(2-homomorpholinoethyl) piperazine dihydrochloride]	> 80%
Cc1ccc(C[C@@H]2CN(CCCN3CCCOCC3)CCN2C(=O)c2cc(C(F)(F)F)cc(C(F)(F)F)c2)cc1C [Example 67-(7), (2R)-1-[3,5-Bis(trifluoromethyl)benzoyl]-2-(3,4-dimethylbenzyl)-4-(3-homomorpholinopropyl) piperazine dihydrochloride]	> 80%
O=C(c1cc(C(F)(F)F)cc(C(F)(F)F)c1)N1CCN(C/C=C\CN2CCOCC2)C[C@H]1Cc1c[nH]c2ccccc12 [Example 71, (2R) -1-[3,5-bis(trifluoromethyl)benzoyl]-2-(1H-indol-3-ylmethyl)-4-[(Z)-4-morpholino-2-butenyl]piperazine dihydrochloride]	> 80%
O=C(c1cc(C(F)(F)F)cc(C(F)(F)F)c1)N1CCN(CCCCN2CCOCC2)C[C@H]1Cc1c[nH]c2ccccc12 [Example 73, (2R)-1-[3,5-bis(trifluoromethyl)benzoyl]-2-(1H-indol-3-ylmethyl)-4-(4-morpholinobutyl) piperazine dihydrochloride]	> 80%
Cc1ccc(C[C@@H]2CN(CCCN3C[C@@H](C)O[C@@H](C)C3)CCN2C(=O)c2cc(C(F)(F)F)cc(C(F)(F)F)c2)cc1C [Example 81, (2R)-1-[3,5-Bis(trifluoromethyl)benzoyl]-2-(3,4-dimethylbenzyl)-4-[3-(cis-2,6-dimethylmorpholino)propyl]piperazine dihydrochloride]	> 80%

Tested on: not given
Test: not given
Conditions: not given

SMILES	melting point
Cc1ccc(C[C@@H]2CN(CC#CCN3CCOCC3)CCN2C(=O)c2cc(C(F)(F)F)cc(C(F)(F)F)c2)cc1C.Cl.Cl [37-(2), (2R)-4-(4-Morpholino-2-butynyl)-1-[3,5-bis (trifluoromethyl)benzoyl]-2-(3,4-dimethylbenzyl) piperazine dihydrochloride]	155 to 162 °C
Cc1ccc(C[C@@H]2CN(CCCN3CCOCC3)CCN2C(=O)c2cc(C(F)(F)F)cc(C(F)(F)F)c2)cc1C.Cl.Cl [53-(1), (2R)-1-[3,5-Bis(trifluoromethyl)benzoyl]-2-(3,4-dimethylbenzyl)-4-(3-morpholinopropyl) piperazine dihydrochloride]	220 to 230 °C
